Measurements taken from patent US5455233A, “Oligoribonucleoside and oligodeoxyribonucleoside boranophosphates” (University of North Carolina, priority 1992, dated 1995).

Legend:
serum cholesterol = experiment: Antihyperlipidemic activity: serum cholesterol levels in male CF1 mice; assay type: in vivo; conditions: for Percent Inhibition, Serum Cholesterol, Day 9: Day 9, 8 mg/kg intraperitoneally; for Percent Inhibition, Serum Cholesterol, Day 16: Day 16, 8 mg/kg intraperitoneally
Procedure: (§1) Compounds to be tested were suspended in 1% aqueous carboxymethylcellulose,homogenized and administered to male CF1 mice (25 g) intraperitoneally for 16d. On days 9 and 16, blood was obtained by tail vein bleeding, and the serum was separated by centrifugation for three minutes. The serum cholesterol levels were determined by a modification of the Liebermann-Burchard reaction in accordance with known techniques. See A. Ness, et al., Clin. Chim. Acta 10, 229 (1964). Serum triglyceride levels were determined with a commercial kit, the Fisher Hycel Triglyceride Test Kit, for a different group of animals bled on day 16.

[1] = tested on: inflammatory response (carrageenan, hind foot); experiment: Anti-inflammatory activity: carrageenan-induced paw inflammation in CF1 male mice; assay type: in vivo; conditions: 8 mg/kg intraperitoneally 3 hours and 30 minutes prior to carrageenan; feet excised after 3 hours
Procedure: Anti-Inflammatory Activity CF1 male mice (~25 g) were administered test drugs at 5-40 mg/kg in 0.05% Tween 80-H2 O intraperitoneally 3 hours prior to and 30 minutes prior to the injection of 0.2 ml of 1% carrageenan in 0.9% saline into the plantar surface of the right hind foot. Saline was injected into the left hind foot, which serves as a base line. After 3 hours, both feet were excised at the tibiotarsal (ankle) joint according to standard procedures. See C. Winter et al., Proc. Soc. Expt. Biol Med. 544, 111 (1962); A. Roszkawski et al., J. Pharm. Exp. Ther. 179, 114 (1971). Control mice afforded a 78±3 mg increase in paw weight.

serum triglyceride = experiment: Antihyperlipidemic activity: serum triglyceride levels in male CF1 mice; assay type: in vivo; conditions: 8 mg/kg intraperitoneally
Procedure: as §1

[2] = tested on: KB epidermoid oral nesopharnyx; experiment: Cytotoxic activity, KB epidermoid oral nesopharnyx; assay type: cell-based; conditions: cell density estimated when controls converged
Procedure: The cytotoxic activity of oligonucleoside boranophosphates of the present invention was tested on the following neoplastic cell lines:
6. KB epidermoid oral nesopharnyx. R. Geran, supra; H. Eagle, Proc. Soc. Expt. Biol. 89, 362 (1955) (grown in EMEM+5% calf serum).
The cytotoxic screens were conducted according to NIH protocols, see E. Huang et al., J. Pharm. Sci. 61, 108 (1972), with 10^4 cells, growth medium, antibiotics and drugs from 0.5 to 100 μg/ml final concentration. For the L1210, Hela-S, amd Tmolt, (i.e. the suspended cells), the incubations were conducted in sterile test tubes in a final volume of 1 ml for 72 hr at 37° C. in a CO2 incubator. The cells on the third day were still in log growth phase. The number of cells/ml are determined using trypan blue exclusion and a hemocytometer. See, e.g., R. Geran, supra. For solid tumors 1×10^4 cells are plated with 1 ml of medium+ antibiotics and the other components of growth. When the controls have converged (≈95%) then the density of the cells is estimated and the ED50 values calculated.

Substance | Percent Inhibition, Serum Cholesterol, Day 9 (serum cholesterol) [%] | Percent Inhibition, Serum Cholesterol, Day 16 (serum cholesterol) [%] | Percent Inhibition of the inflammatory response [1] [%] | Percent Inhibition, Serum Triglyceride, Day 16 (serum triglyceride) [%] | ED50, KB [2] [mg/L]
thymidylyl[3'-5']-(3'-acetylthymidylyl) (borane)phosphonate methyl ester [Compound A] | 38 | 46 | 37 | 12 | 3.51
thymidylyl[3'-5']thymidylyl[3'-5'](3'-acetylthymidylyl) boranephosphonate dimethyl ester [Compound T] | 33 | 32 | 40 | 18 | 0.61
